The results in this text go back to US9586931B2 (Merck Sharp & Dohme Corp., priority 2012, dated 2017).

In this assay the target is T1, recombinant human GST-Syk (Homo sapiens, UniProt P43405).
T1 construct: purchased Carna Biosciences 08-176
The experiment in a line: Homogeneous Time-Resolved Fluorescence (HTRF) assay for the recombinant human Syk enzyme. The format is biochemical. The settings on record: recombinant human GST-Syk 5 pM, ATP 25 μM, 10-dose titration 10 μM to 0.508 nM; read-out: rhSYK Activity IC50. In short, it runs like this: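 GST-hSyk fusion protein phosphorylated a peptide for 45 min at room temperature. The reaction was quenched with 2 nM Eu-anti-phosphotyrosine antibody and 70 nM SA-APC in 15 mM Tris pH 7.5, 40 mM EDTA, 0.01% Tween 20. The HTRF signal was read after 30 min.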
(In general: TR-FRET usually uses a lanthanide donor and a delayed reading to cut background.)
Consider `Cc1cc(Nc2cc(C(F)(F)F)ccn2)nc(-c2cn([C@@H](C)C(=O)O)nn2)c1` [Example 5.30, (2S)-2-[4-(4-methyl-6-{[4-(trifluoromethyl)pyridin-2-yl]amino}pyridin-2-yl)-1H-1,2,3-triazol-1-yl]propanoic acid], for which the concentration for half-maximal inhibition (IC50) – broadly, the concentration that inhibits the measured activity by half – was determined as 39.8 nM. Take `Cc1cc(Nc2cc(C(F)F)ccn2)nc(-c2cn(CC3CNCCO3)nn2)c1` (single isomer, unassigned) [Example 26.2, N-(4-(difluoromethyl)pyridin-2-yl)-4-methyl-6-(1-(morpholin-2-ylmethyl)-1H-1,2,3-triazol-4-yl)pyridin-2-amine]: the IC50 stood at 3.3 nM. The same measure for `Cc1cc(Nc2nccc(C(F)F)n2)cc(-c2cn(C(C)C(C)(O)CO)nn2)c1` (single isomer, unassigned) [Example 30.4, 3-(4-(3-((4-(Difluoromethyl)pyrimidin-2-yl)amino)-5-methylphenyl)-1H-1,2,3-triazol-1-yl)-2-methylbutane-1,2-diol]: 11.4 nM; for `Cc1cc(Nc2cc(C(F)F)ccn2)nc(-c2cn(C(C)C(C)(O)CO)nn2)c1` (single isomer, unassigned) [Example 30.7, 3-[4-(6-{[4-(difluoromethyl)pyridin-2-yl]amino}-4-methylpyridin-2-yl)-1H-1,2,3-triazol-1-yl]-2-methylbutane-1,2-diol]: 1.4 nM. The result for `Cc1cc(Nc2cc(C(F)(F)F)ccn2)nc(-c2cn(C3CNCC3O)nn2)c1` (centres unmarked) [Example 4.15, 4-[4-(4-methyl-6-{[4-(trifluoromethyl)pyridin-2-yl]amino}pyridin-2-yl)-1H-1,2,3-triazol-1-yl]pyrrolidin-3-ol] reads 32.9 nM.

Turning to `Cc1cc(Nc2cc(C(F)F)ccn2)nc(-c2cn(CC3(C)CNC(=O)O3)nn2)c1` (single isomer, unassigned) [Example 7.8, 5-((4-(6-((4-(difluoromethyl)pyridin-2-yl)amino)-4-methylpyridin-2-yl) 1H-1,2,3-triazol-1-yl)methyl)-5-methyloxazolidin-2-one], the half-maximal inhibitory concentration (IC50) was determined as 1.9 nM.

As to `Cc1cc(Nc2cc(C(F)(F)F)ccn2)nc(-c2cn(C(C)C(=O)NCCc3cccc4ccccc34)nn2)c1` (centres unmarked) [Example 1.44, 2-[4-(4-methyl-6-{[4-(trifluoromethyl)pyridin-2-yl]amino}pyridin-2-yl)-1H-1,2,3-triazol-1-yl]-N-(2-naphthalen-1-ylethyl)propanamide], the 50% inhibitory concentration (IC50) turned out to be 626 nM. The result for `CCC(O)(CC)Cn1cc(-c2cc(C)cc(Nc3cc(C(F)(F)F)ccn3)n2)nn1` [Example 4.31, 3-{[4-(4-methyl-6-{[4-(trifluoromethyl)pyridin-2-yl]amino}pyridin-2-yl)-1H-1,2,3-triazol-1-yl]methyl}pentan-3-ol] reads 8.1 nM; that for `Cc1cc(Nc2cc(C(F)F)ccn2)nc(-c2cn(CC3CNC(=O)C3)nn2)c1` (single isomer, unassigned) [Example 24.2, 4-((4-(6-((4-(difluoromethyl)pyridin-2-yl)amino)-4-methylpyridin-2-yl)-1H-1,2,3-triazol-1-yl)methyl)pyrrolidin-2-one], 8.6 nM; that for `Cc1cc(Nc2cc(C(F)(F)F)ccn2)nc(-c2cn(C[C@]3(O)C[C@H](C#N)C3)nn2)c1` [Example 4.26, trans-3-hydroxy-3-{[4-(4-methyl-6-{[4-(trifluoromethyl)pyridin-2-yl]amino}pyridin-2-yl)-1H-1,2,3-triazol-1-yl]methyl}cyclobutanecarbonitrile], 0.7 nM.

With `Cc1cc(Nc2cc(C(F)(F)F)ccn2)nc(-c2cn(CC(C)(O)CO)nn2)c1` (centres unmarked) [Example 10.14, 2-methyl-3-[4-(4-methyl-6-{[4-(trifluoromethyl)pyridin-2-yl]amino}pyridin-2-yl)-1H-1,2,3-triazol-1-yl]propane-1,2-diol], the half-inhibitory concentration (IC50) came out at 9.1 nM. The same measure for `COC(=O)C(C)n1cc(-c2cc(C)cc(Nc3cc(C(F)(F)F)ccn3)n2)nn1` (centres unmarked) [Example 5.20, methyl 2-[4-(4-methyl-6-{[4-(trifluoromethyl)pyridin-2-yl]amino}pyridin-2-yl)-1H-1,2,3-thiazol-1-yl]propanoate]: 24.1 nM; for `Cc1cc(Nc2nccc(C(F)(F)F)n2)cc(-c2cn(CCO)nn2)c1` [Example 5.1, 2-(4-(3-Methyl-5-((4-(trifluoromethyl)pyrimidin-2-yl)amino)phenyl)-1H-1,2,3-triazol-1-yl)ethanol]: 14.9 nM. As for `Cc1cc(Nc2nccc(C)n2)cc(-c2cn(C3CCCCC3O)nn2)c1` (single isomer, unassigned) [Example 7.22, 2-(4-{3-methyl-5-[(4-methylpyrimidin-2-yl)amino]phenyl}-1H-1,2,3-triazol-1-yl)cyclohexanol], the IC50 was 56 nM.

Take `Cc1cc(Nc2cc(C(C)F)ccn2)nc(-c2cn(CC(C)(O)C(C)(C)O)nn2)c1` (centres unmarked) [Example 21.17, 1-[4-(6-{[4-(1-fluoroethyl)pyridin-2-yl]amino}-4-methylpyridin-2-yl)-1H-1,2,3-triazol-1-yl]-2,3-dimethylbutane-2,3-diol]: the IC50 worked out at 23.1 nM. As to `Cc1cc(Nc2cc(C(F)(F)F)ccn2)nc(-c2cn(CC(=O)N3CCCC3)nn2)c1` [Example 5.87, 4-methyl-6-[1-(2-oxo-2-pyrrolidin-1-ylethyl)-1H-1,2,3-triazol-4-yl]-N-[4-(trifluoromethyl)pyridin-2-yl]pyridin-2-amine], the IC50 amounted to 81.2 nM. The same measure for `Cc1cc(Nc2nccc(C)n2)cc(-c2cn(C3CCCCC3O)nn2)c1` (single isomer, unassigned) [Example 7.21, 2-(4-{3-methyl-5-[(4-methylpyrimidin-2-yl)amino]phenyl}-1H-1,2,3-triazol-1-yl)cyclohexanol]: 69.5 nM.
